According to patent US5214153A, “Actinoplanes transformation process anti-hypertensive compound and method of use thereas” (Merck & Co., Inc., priority 1992, dated 1993):

Target: T1, Angiotensin II (A II) receptor (Oryctolagus cuniculus, UniProt P34976)
T1 construct: 125I-Sar1Ile8-angiotensin II displacement
T1 sequence (P34976 1-359): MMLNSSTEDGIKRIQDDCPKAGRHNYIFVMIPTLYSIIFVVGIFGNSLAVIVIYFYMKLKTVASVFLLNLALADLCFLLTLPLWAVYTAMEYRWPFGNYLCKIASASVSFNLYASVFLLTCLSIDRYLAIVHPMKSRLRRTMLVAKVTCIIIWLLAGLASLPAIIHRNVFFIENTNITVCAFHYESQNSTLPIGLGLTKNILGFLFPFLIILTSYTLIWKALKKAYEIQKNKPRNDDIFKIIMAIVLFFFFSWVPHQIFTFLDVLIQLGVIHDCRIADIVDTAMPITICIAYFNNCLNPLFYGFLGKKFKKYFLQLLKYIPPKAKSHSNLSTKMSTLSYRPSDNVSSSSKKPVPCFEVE
Assay: Receptor Binding Assay Using Rabbit Aortae Membrane Preparation ("IC50" assay)
Description: This assay is also referred to herein as the "IC50 " assay.
Receptor Binding Assay Using Rabbit Aortae Membrane Preparation
Three frozen rabbit aortae (obtained from Pel-Freeze Biologicals) were suspended in 5 mM Tris-0.25M Sucrose, pH 7.4 buffer (50 mL) homogenized, and then centrifuged. The mixture was filtered through a cheesecloth and the supernatant was centrifuged for 30 minutes at 20,000 rpm at 4° C. The pellet thus obtained was resuspended in 30 mL of 50 mM Tris-5 mM MgCl2 buffer containing 0.2% Bovine Serum Albumin and 0.2 mg/mL Bacitratin and the suspension was used for 100 assay tubes. Samples tested for screening were done in duplicate. To the membrane preparation (0.25 mL) there was added ^125 I-Sar^1 Ile^8 -angiotensin II [obtained from New England Nuclear] (10 uL; 20,000 cpm) with or without the test sample and the mixture was incubated at 37° C. for 90 minutes. The mixture was then diluted with ice-cold 50 mM Tris-0.9% NaCl, pH 7.4 (4 mL) and filtered through a glass fiber filter (GF/B Whatman 2.4" diameter). The filter was soaked in scintillation cocktail (10 mL) and counted for radioactivity using Packard 2660 Tricarb liquid scintillation counter. […]

CC(O)CCc1nc(Cl)c(CO)n1Cc1ccc(-c2ccccc2-c2nnn[nH]2)cc1 (stereo not shown) [compound (I)]
A II antagonist activity by the IC50 assay: exhibits A II antagonist activity
